Measurements reported in PMC6940354, “Comparative Assessment of the New PDE7 Inhibitor – GRMS-55 and Lisofylline in Animal Models of Immune-Related Disorders: A PK/PD Modeling Approach” (Pharmaceutical Research, 2020).
Marks after values point to notes of the source that are not given here.

Legend:
[1] = target: T1, hrPDE2A (Homo sapiens, UniProt O00408); experiment: PDE-Glo Phosphodiesterase Assay, hrPDE2A; type: biochemical; settings: cGMP substrate, read-out: IC50 PDE2A, Estimate (CV%)
T1 construct: purchased SignalChem, Richmond, Canada
Procedure: (§1) Inhibitory activity of the investigated and reference compounds against various subtypes of PDEs was analyzed using the PDE-Glo Phosphodiesterase Assay following the manufacturer’s instruction (Promega Corp., USA). […] The values of IC50, Imax, and γ parameters of the investigated and reference compounds were estimated using non-linear regression in Phoenix WinNonlin v. […] Each sample was performed in quadruplicate and the relative activity of each sample was calculated as E=sample activity/control activity·100% .
(§2) One and a half μL aliquots of PDE-Glo reaction buffer containing appropriate amounts of human recombinant PDE (hrPDE) 1B, 2A, 3A, 4B, 4D, 5A, 7A, or 10A (SignalChem, Richmond, Canada) were placed into separate wells of a 384-well plate (Thermo Scientific, USA). The investigated compounds were initially dissolved in DMSO and then a serial dilution with DMSO was performed. Each dilution was mixed with PDE-Glo reaction buffer at a ratio of 1:5 (v/v). Then, 1 μL of the solution containing a PDE inhibitor and 2.5 μL of the substrate solution were added to each well. cGMP was used as a substrate in the case of hrPDE2A and hrPDE5A, while cAMP for other types of hrPDEs. The samples were incubated for 10 min at 30°C. […] The luminescence of each sample was measured by a microplate reader POLARstar Omega (BMG LABTECH, Germany).

[2] = target: T2, hrPDE7A (Homo sapiens, UniProt Q13946); experiment: PDE-Glo Phosphodiesterase Assay, hrPDE7A; type: biochemical; settings: cAMP substrate, read-out: IC50 PDE7A, Estimate (CV%)
T2 construct: purchased SignalChem, Richmond, Canada
Procedure: as §1, §2

[3] = parameters: method as in PMID 27065076; settings: male Wistar rats; data already published ref [10]; cited from earlier work
[4] = system: cAMP degradation; parameters: method as in PMID 28730281; settings: rats, cAMP as a marker of pharmacological response ref [9]; cited from earlier work
[5] = target: hrPDE3A (Homo sapiens, UniProt Q14432); experiment: PDE-Glo Phosphodiesterase Assay, hrPDE3A
Procedure: as §1, §2

[6] = target: hrPDE5A (Homo sapiens, UniProt O76074); experiment: PDE-Glo Phosphodiesterase Assay, hrPDE5A
Procedure: as §1, §2

[7] = Pharmacokinetics in male Wistar rats; type: in vivo, rat; settings: for half-life: male rats (Wistar), IV, read-out: elimination half-life
Procedure: The same vehicles as these in pharmacodynamic studies for each compound and route of administration were used. Rats were implanted with catheters into the jugular vein and after a two-day period they were administered with the investigated compounds by the listed above routes of administration. […] Samples were subsequently centrifuged at 3000 × g for 10 min. Plasma was stored at −80°C until analysis.
A detailed description of these methods has been provided in the supplementary materials.
Firstly, the concentration-time data collected for each individual compound from one of the investigated rat strains (Wistar or Lewis) were subjected to a non-compartmental analysis (NCA). Subsequently, pharmacokinetic models were developed for each investigated compound and strain of rat. One- and two- compartment models with linear or non-linear elimination were tested. […] The final models were chosen based on the goodness-of-fit criteria, such as Akaike Information Criterion (AIC), Schwarz Bayesian Criterion (SBC), weighted sum of squared residuals (WSSR), a visual inspection of fitting, and precision of estimated parameters expressed as coefficients of variation % (CVs%). NCA analysis was performed in Phoenix WinNonlin v. 7.0 (Pharsight Corp., a Certara Company, Princeton, New Jersey). Pharmacokinetic model parameters were estimated in ADAPT 5 software (BMSR, Los Angeles, CA) using the weighted least squares algorithm. Fraction of the dose absorbed (F) following an extravascular (EV) administration was calculated according to the Eq. 4:4 F=AUC0−tEV·DIV/AUC0−tIV·DEV where AUC0-t is the area under concentration versus time curve from 0 to the last measured point and D is dose.
PK/PD and PK/PD/DIS progression models were developed considering the mechanism of action of the investigated compounds, the mechanisms of disease progression in the case of CIA, and the subsequent stages leading to TNF-α release in the case of LPS-induced endotoxemia. Various numbers of transit compartments were tested during development of the models, and the final models were chosen based on the goodness-of-fit criteria, such as AIC, SBC, a visual inspection of the fitting, and parameter precision. Estimated values of pharmacokinetic parameters were fixed during PK/PD and PK/PD/DIS progression model fitting procedures. […] PK/PD and PK/PD/DIS progression modeling were performed in ADAPT 5 software using the weighted least squares algorithm.
The applied model is a modified indirect response model ([19]) with implemented transit compartments (T1-T4) that describe the delay of the observed pharmacodynamic response. In this scheme τ is the mean transit time, kin is the time limited (from 0 to tlag) zero-order rate constant of production of a TNF-α precursor (e.g., TNF-α mRNA). […]

[8] = system: LPS-stimulated murine macrophages (RAW263.7 cells); parameters: method as in PMID 14998551; settings: LPS-stimulated murine macrophage cell line ref [31]; read-out: IC50, TNF-α production; cited from earlier work
[9] = depending on the species; earlier study ref [37]; cited from earlier work

T1 sequence (O00408 whole entry): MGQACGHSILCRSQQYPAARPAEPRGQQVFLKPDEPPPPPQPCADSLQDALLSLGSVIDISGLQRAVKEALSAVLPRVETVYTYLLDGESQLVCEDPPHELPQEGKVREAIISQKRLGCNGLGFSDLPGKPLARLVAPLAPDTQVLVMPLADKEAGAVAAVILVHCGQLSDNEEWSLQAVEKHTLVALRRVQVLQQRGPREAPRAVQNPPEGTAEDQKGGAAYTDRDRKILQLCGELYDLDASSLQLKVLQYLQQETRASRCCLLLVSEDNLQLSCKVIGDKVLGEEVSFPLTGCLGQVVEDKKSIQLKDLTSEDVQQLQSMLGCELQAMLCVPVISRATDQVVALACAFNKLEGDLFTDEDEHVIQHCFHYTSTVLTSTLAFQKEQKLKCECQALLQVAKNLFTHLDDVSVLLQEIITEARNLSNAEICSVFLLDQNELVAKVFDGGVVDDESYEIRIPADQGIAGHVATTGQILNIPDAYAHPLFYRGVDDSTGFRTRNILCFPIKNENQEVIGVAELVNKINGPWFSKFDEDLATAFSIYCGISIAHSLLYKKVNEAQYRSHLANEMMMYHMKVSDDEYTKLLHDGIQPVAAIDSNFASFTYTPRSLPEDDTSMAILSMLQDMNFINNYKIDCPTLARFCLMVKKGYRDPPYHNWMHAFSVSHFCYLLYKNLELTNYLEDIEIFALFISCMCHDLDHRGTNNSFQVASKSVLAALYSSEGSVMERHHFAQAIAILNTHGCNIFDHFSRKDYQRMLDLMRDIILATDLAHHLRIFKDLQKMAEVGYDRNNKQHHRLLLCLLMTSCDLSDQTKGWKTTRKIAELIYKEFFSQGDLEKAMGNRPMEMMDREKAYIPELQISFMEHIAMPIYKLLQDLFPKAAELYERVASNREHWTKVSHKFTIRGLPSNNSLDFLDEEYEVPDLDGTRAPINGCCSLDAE
Sequence of hrPDE3A (Q14432 whole entry): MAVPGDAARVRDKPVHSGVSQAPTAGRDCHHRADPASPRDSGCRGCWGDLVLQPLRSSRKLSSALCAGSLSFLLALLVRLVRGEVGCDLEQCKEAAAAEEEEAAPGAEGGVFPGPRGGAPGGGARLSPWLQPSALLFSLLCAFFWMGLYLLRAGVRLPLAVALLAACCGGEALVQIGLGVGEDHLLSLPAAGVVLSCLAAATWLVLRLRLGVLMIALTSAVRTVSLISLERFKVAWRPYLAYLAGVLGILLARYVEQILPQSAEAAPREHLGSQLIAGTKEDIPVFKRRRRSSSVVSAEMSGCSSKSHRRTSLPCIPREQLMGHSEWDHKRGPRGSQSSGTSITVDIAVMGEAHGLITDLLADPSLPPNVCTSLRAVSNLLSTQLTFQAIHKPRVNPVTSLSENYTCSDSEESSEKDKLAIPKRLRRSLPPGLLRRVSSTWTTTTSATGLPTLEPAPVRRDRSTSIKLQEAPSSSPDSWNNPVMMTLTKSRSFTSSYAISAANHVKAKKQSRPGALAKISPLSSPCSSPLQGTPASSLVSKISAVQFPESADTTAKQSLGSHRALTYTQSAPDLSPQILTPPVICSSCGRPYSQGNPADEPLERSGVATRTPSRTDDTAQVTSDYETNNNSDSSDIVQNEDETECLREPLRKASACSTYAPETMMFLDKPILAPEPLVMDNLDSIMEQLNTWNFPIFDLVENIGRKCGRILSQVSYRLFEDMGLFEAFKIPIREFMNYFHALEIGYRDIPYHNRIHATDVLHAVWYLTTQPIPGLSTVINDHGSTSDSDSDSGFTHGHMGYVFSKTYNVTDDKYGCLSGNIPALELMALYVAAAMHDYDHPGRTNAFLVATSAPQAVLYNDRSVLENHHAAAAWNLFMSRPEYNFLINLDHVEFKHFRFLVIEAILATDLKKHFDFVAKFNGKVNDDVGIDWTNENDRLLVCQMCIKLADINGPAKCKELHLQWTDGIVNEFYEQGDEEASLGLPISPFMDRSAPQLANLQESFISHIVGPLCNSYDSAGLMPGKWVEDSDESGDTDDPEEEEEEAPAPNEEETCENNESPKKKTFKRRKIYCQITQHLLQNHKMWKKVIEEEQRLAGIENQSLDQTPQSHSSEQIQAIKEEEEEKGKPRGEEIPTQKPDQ
T2 sequence (Q13946 whole entry): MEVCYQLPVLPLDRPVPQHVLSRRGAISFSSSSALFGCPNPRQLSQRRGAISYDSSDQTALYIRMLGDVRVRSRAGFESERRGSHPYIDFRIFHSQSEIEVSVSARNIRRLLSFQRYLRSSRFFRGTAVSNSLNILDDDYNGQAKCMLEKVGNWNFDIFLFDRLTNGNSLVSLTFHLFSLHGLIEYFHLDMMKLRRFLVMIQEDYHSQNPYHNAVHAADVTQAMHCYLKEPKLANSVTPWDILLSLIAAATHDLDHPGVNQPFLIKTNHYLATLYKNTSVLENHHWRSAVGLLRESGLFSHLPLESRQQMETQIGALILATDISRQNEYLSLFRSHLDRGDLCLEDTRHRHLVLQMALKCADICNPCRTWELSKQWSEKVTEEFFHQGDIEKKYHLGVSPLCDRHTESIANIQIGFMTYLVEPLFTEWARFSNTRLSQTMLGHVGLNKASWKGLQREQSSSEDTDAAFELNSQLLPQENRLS

Compound | IC50 [1] [µM] | IC50 [2] [µM] | VLSF, volume of distribution of (±)-LSF, Estimate (CV%) [3] | Vmax, maximal elimination rate constant of (±)-LSF, Estimate (CV%) [3] | IC50 value for the inhibition of cAMP degradation [4] [µg/mL] | IC50 [5] [µM] | IC50 [6] [µM] | elimination rate constant, times lower than that of rolipram ([7]; compared to rolipram) | Vd ([7]; rat, plasma, male Wistar rats, GRMS-55 IV 20 mg kg^−1, 1-compartment model, read-out: V(GRMS-55), volume of distribution, Estimate (CV%)) [L/kg] | half-life ([7]; rat, plasma) [min] | IC50 [8] [µM] | elimination half-life [9] [min]
CC(O)CCCCn1c(=O)c2c(ncn2C)n(C)c1=O (racemic) [(±)-LSF, lisofylline] | 91.6 | 297 | 1.22 (3.4)^a L kg^−1 | 0.433 (56.9)^a mg min^−1 kg^−1 | 3.43 | 73.4 | > 100 | – | – | – | – | –
Cn1c(=O)c2c(nc(NCCc3ccccc3)n2CCCC(=O)NN=Cc2ccccc2O)n(C)c1=O [GRMS-55, 4-(1,3-Dimethyl-2,6-dioxo-8-(phenethylamino)-2,3,6,7-tetrahydro-1H-purin-7-yl)-N′-(2-hydroxybenzylidene)butanehydrazide] | > 100 | – | – | – | – | 13.4 | > 100 | approx. 2 times | 1.59 | 22 | – | –
COc1ccc(C2CNC(=O)C2)cc1OC1CCCC1 (stereo not shown) [Rolipram, rolipram] | – | – | – | – | – | – | – | – | – | 11 | 0.0593 | 60 to 180
